# What was measured:
# [1] = system: CTGF expression in human keloid fibroblasts; test: TGF-β1-induced CTGF expression, Western blot densitometry related to GAPDH; type: cell-based
# Procedure: Fibroblast culture: Human keloid fibroblasts were grown in 10 cm^2 dishes to 70% confluence in DMEM with 10% FBS and additional penicillin and streptomycin (1%), at 37° C. and 10% CO2. Cells were serum starved in DMEM containing 0.5% FBS for 48 h before the experiment. At the start of the assay, fresh media was added to the dishes, and cells were either untreated (control) or treated with TGF-β1 (doses ranging from 0.6 to 5 ng/mL), P20 phosphopeptide (doses ranging from 50-200 μM), forskolin (FSK, 10 μM) or SNAP (500 μM) for 24 h. To verify the influence of serum starvation, we also had cells in 10% FBS containing medium (control high serum).
# Western blot analysis: At the end of the experiment, cells were rinsed with PBS, and homogenized using UDC buffer. Lysates were mixed, centrifuged (6000×g) for 20 min, and the supernatant was used for determination of CTGF and collagen expression. Samples (20 μg of protein) were loaded on 15 or 10% SDS-PAGE gels, and the proteins were electrophoretically transferred to Immobilon membranes. […] Protein-antibody complexes were visualized using the Odyssey direct infrared fluorescence imaging system (Li-Cor, Lincoln, Nebr.). […]
# P20 treatment and CTGF expression: Human keloid fibroblasts were serum-starved in DMEM medium containing 0.5% FBS for 48 hours, stimulated with TGF-beta1 doses ranging from 1.2 to 5 ng/mL and concomitantly treated with the P20 phosphopeptide (50, 100 or 200 μM) for 24 hours. Western blot bands were quantified by densitometry, and CTGF expression was related to GAPDH expression to correct for loading differences. […]
# Treatment with compounds that elevate cAMP and cGMP: We next evaluated the influence of compounds that elevate cAMP (Forskolin, FSK) or cGMP (SNAP) on CTGF expression in keloid fibroblasts. […] Western blot bands were quantified by densitometry, and CTGF expression was related to GAPDH expression to correct for loading differences. […]
# [2] = system: CTGF expression in renal fibroblasts; settings: Ott et al., 2003; cited from earlier work
compound,measurement,setting,value
"C=C[C@@]1(C)CC(=O)[C@]2(O)[C@@]3(C)[C@@H](O)CCC(C)(C)[C@@H]3[C@H](O)[C@H](OC(C)=O)[C@@]2(C)O1 [FSK, forskolin]",decrease of CTGF expression,"[1]; TGF-β1-stimulated fibroblasts (2.5 ng/mL), FSK 10 μM, 24 h",~50%
latrunculin,CTGF expression,[2],decreased
CC(=O)N[C@@H](C(=O)O)C(C)(C)SN=O (racemic) [SNAP],decrease of CTGF expression,"[1]; TGF-β1-stimulated cells, SNAP 500 μM",did not decrease
same,CTGF expression compared to untreated (control) cells,"[1]; non-stimulated cells, SNAP 500 μM, p<0.05",two-time increase
